Blank lines part the entries; values can stand above or below the compound they belong to.
Key:
[1] = Ratio of drug level in S180 tumor to blood in KM mouse at 240 to 370 kBq, iv after 15mins; type: ADME, organism-based; conditions: tumour, 0.25 h
[2] = Biodistribution in S180 tumor present in KM mouse assessed per gram of tissue at 240 to 370 kBq, iv after 30 mins; type: ADME, organism-based, Neoplasm; conditions: in vivo, 0.5 h
[3] = Ratio of drug level in S180 tumor to brain KM mouse at 240 to 370 kBq, iv after 30 mins; type: ADME, organism-based; conditions: in vivo, 0.5 h
[4] = Ratio of drug level in S180 tumor to brain KM mouse at 240 to 370 kBq, iv after 15 mins; type: ADME, organism-based; conditions: in vivo, 0.25 h
[5] = test system: Kidney; test: Biodistribution in S180 tumor-bearing KM mouse kidney assessed per gram of tissue at 240 to 370 kBq, iv after 15 mins; type: ADME, organism-based; conditions: in vivo, 0.25 h
[6] = Ratio of drug level in S180 tumor to blood in KM mouse at 240 to 370 kBq, iv after 120 mins; type: ADME, organism-based; conditions: tumour, 2 h
[7] = test system: Spleen; test: Biodistribution in S180 tumor-bearing KM mouse spleen assessed per gram of tissue at 240 to 370 kBq, iv after 120 mins; type: ADME, organism-based; conditions: in vivo, 2 h
[8] = test system: Muscle tissue; test: Biodistribution in S180 tumor-bearing KM mouse muscle assessed per gram of tissue at 240 to 370 kBq, iv after 60 mins; type: ADME, organism-based; conditions: in vivo, 1 h
[9] = test system: Liver; test: Biodistribution in S180 tumor-bearing KM mouse liver assessed per gram of tissue weight at 240 to 370 kBq, iv after 15 mins; type: ADME, organism-based; conditions: in vivo, 0.25 h
[10] = Ratio of drug level in S180 tumor to muscleKM mouse at 240 to 370 kBq, iv after 15 mins; type: ADME, organism-based, KM; conditions: in vivo, 0.25 h
[11] = test system: Brain; test: Biodistribution in S180 tumor-bearing KM mouse brain assessed per gram of tissue at 240 to 370 kBq, iv after 30 mins; type: ADME, organism-based; conditions: in vivo, 0.5 h
[12] = Ratio of drug level in S180 tumor to muscleKM mouse at 240 to 370 kBq, iv after 120 mins; type: ADME, organism-based, KM; conditions: in vivo, 2 h
[13] = test system: Heart; test: Biodistribution in S180 tumor-bearing KM mouse heart assessed per gram of tissue weight at 240 to 370 kBq, iv after 5 mins; type: ADME, organism-based; conditions: in vivo
[14] = test system: Liver; test: Biodistribution in S180 tumor-bearing KM mouse liver assessed per gram of tissue weight at 240 to 370 kBq, iv after 5 mins; type: ADME, organism-based; conditions: in vivo
[15] = test system: Heart; test: Biodistribution in S180 tumor-bearing KM mouse heart assessed per gram of tissue weight at 240 to 370 kBq, iv after 60 mins; type: ADME, organism-based; conditions: in vivo, 1 h
[16] = test system: Spleen; test: Biodistribution in S180 tumor-bearing KM mouse spleen assessed per gram of tissue at 240 to 370 kBq, iv after 60 mins; type: ADME, organism-based; conditions: in vivo, 1 h
[17] = test system: Blood; test: Biodistribution in S180 tumor-bearing KM mouse blood assessed per gram of tissue weight at 240 to 370 kBq, iv after 60 mins; type: ADME, organism-based; conditions: in vivo, 1 h
[18] = test system: Spleen; test: Biodistribution in S180 tumor-bearing KM mouse spleen assessed per gram of tissue at 240 to 370 kBq, iv after 15 mins; type: ADME, organism-based; conditions: in vivo, 0.25 h
[19] = test system: Blood; test: Biodistribution in S180 tumor-bearing KM mouse blood assessed per gram of tissue weight at 240 to 370 kBq, iv after 120 mins; type: ADME, organism-based; conditions: in vivo, 2 h
[20] = Ratio of drug level in S180 tumor to muscleKM mouse at 240 to 370 kBq, iv after 30 mins; type: ADME, organism-based, KM; conditions: in vivo, 0.5 h
[21] = test system: Kidney; test: Biodistribution in S180 tumor-bearing KM mouse kidney assessed per gram of tissue at 240 to 370 kBq, iv after 60 mins; type: ADME, organism-based; conditions: in vivo, 1 h
[22] = Biodistribution in S180 tumor present in KM mouse assessed per gram of tissue at 240 to 370 kBq, iv after 5 mins; type: ADME, organism-based, Neoplasm; conditions: in vivo
[23] = Biodistribution in S180 tumor present in KM mouse assessed per gram of tissue at 240 to 370 kBq, iv after 60 mins; type: ADME, organism-based, Neoplasm; conditions: in vivo, 1 h
[24] = test system: Muscle tissue; test: Biodistribution in S180 tumor-bearing KM mouse muscle assessed per gram of tissue at 240 to 370 kBq, iv after 120 mins; type: ADME, organism-based; conditions: in vivo, 2 h
[25] = test system: Spleen; test: Biodistribution in S180 tumor-bearing KM mouse spleen assessed per gram of tissue at 240 to 370 kBq, iv after 5 mins; type: ADME, organism-based; conditions: in vivo
[26] = test system: Lung; test: Biodistribution in S180 tumor-bearing KM mouse lung assessed per gram of tissue at 240 to 370 kBq, iv after 60 mins; type: ADME, organism-based; conditions: in vivo, 1 h
[27] = Biodistribution in S180 tumor present in KM mouse assessed per gram of tissue at 240 to 370 kBq, iv after 15 mins; type: ADME, organism-based, Neoplasm; conditions: in vivo, 0.25 h
[28] = test system: Heart; test: Biodistribution in S180 tumor-bearing KM mouse heart assessed per gram of tissue weight at 240 to 370 kBq, iv after 15 mins; type: ADME, organism-based; conditions: in vivo, 0.25 h
[29] = Ratio of drug level in S180 tumor to blood in KM mouse at 240 to 370 kBq, iv after 5mins; type: ADME, organism-based; conditions: tumour
[30] = test system: Kidney; test: Biodistribution in S180 tumor-bearing KM mouse kidney assessed per gram of tissue at 240 to 370 kBq, iv after 30 mins; type: ADME, organism-based; conditions: in vivo, 0.5 h
[31] = test system: Heart; test: Biodistribution in S180 tumor-bearing KM mouse heart assessed per gram of tissue weight at 240 to 370 kBq, iv after 120 mins; type: ADME, organism-based; conditions: in vivo, 2 h
[32] = Ratio of drug level in S180 tumor to muscleKM mouse at 240 to 370 kBq, iv after 60 mins; type: ADME, organism-based, KM; conditions: in vivo, 1 h
[33] = test system: Liver; test: Biodistribution in S180 tumor-bearing KM mouse liver assessed per gram of tissue at 240 to 370 kBq, iv after 120 mins; type: ADME, organism-based; conditions: in vivo, 2 h
[34] = test system: Kidney; test: Biodistribution in S180 tumor-bearing KM mouse kidney assessed per gram of tissue at 240 to 370 kBq, iv after 120 mins; type: ADME, organism-based; conditions: in vivo, 2 h
[35] = test system: Brain; test: Biodistribution in S180 tumor-bearing KM mouse brain assessed per gram of tissue at 240 to 370 kBq, iv after 120 mins; type: ADME, organism-based; conditions: in vivo, 2 h
[36] = test system: Spleen; test: Biodistribution in S180 tumor-bearing KM mouse spleen assessed per gram of tissue at 240 to 370 kBq, iv after 30 mins; type: ADME, organism-based; conditions: in vivo, 0.5 h
[37] = test system: Brain; test: Biodistribution in S180 tumor-bearing KM mouse brain assessed per gram of tissue at 240 to 370 kBq, iv after 5 mins; type: ADME, organism-based; conditions: in vivo
[38] = test system: Lung; test: Biodistribution in S180 tumor-bearing KM mouse lung assessed per gram of tissue at 240 to 370 kBq, iv after 120 mins; type: ADME, organism-based; conditions: in vivo, 2 h
[39] = test system: Brain; test: Biodistribution in S180 tumor-bearing KM mouse brain assessed per gram of tissue at 240 to 370 kBq, iv after 15 mins; type: ADME, organism-based; conditions: in vivo, 0.25 h
[40] = test system: Lung; test: Biodistribution in S180 tumor-bearing KM mouse lung assessed per gram of tissue at 240 to 370 kBq, iv after 15 mins; type: ADME, organism-based; conditions: in vivo, 0.25 h
[41] = test system: Heart; test: Biodistribution in S180 tumor-bearing KM mouse heart assessed per gram of tissue weight at 240 to 370 kBq, iv after 30 mins; type: ADME, organism-based; conditions: in vivo, 0.5 h
[42] = Ratio of drug level in S180 tumor to brain KM mouse at 240 to 370 kBq, iv after 5 mins; type: ADME, organism-based; conditions: in vivo
[43] = test system: Blood; test: Biodistribution in S180 tumor-bearing KM mouse blood assessed per gram of tissue weight at 240 to 370 kBq, iv after 15 mins; type: ADME, organism-based; conditions: in vivo, 0.25 h

tumor/blood ratio [1]: 0.72
Drug uptake [2]: 0.56 %ID
tumor/brain ratio [3]: 13.3
tumor/brain ratio [4]: 10.4
Drug uptake [5]: 5.19 %ID
tumor/blood ratio [6]: 1.3
Drug uptake [7]: 0.16 %ID
Drug uptake [8]: 0.15 %ID
Drug uptake [9]: 3.35 %ID
tumor/muscle ratio [10]: 1.95
Drug uptake [11]: 0.04 %ID
tumor/muscle ratio [12]: 0.66
Drug uptake [13]: 1.07 %ID
Drug uptake [14]: 6.54 %ID
Drug uptake [15]: 0.11 %ID
Drug uptake [16]: 0.24 %ID
Drug uptake [17]: 0.15 %ID
Drug uptake [18]: 0.6 %ID
Drug uptake [19]: 0.06 %ID
tumor/muscle ratio [20]: 2.62
Drug uptake [21]: 0.45 %ID
Drug uptake [22]: 1.37 %ID
Drug uptake [23]: 0.27 %ID
Drug uptake [24]: 0.12 %ID
Drug uptake [25]: 1.04 %ID
Drug uptake [26]: 1.14 %ID
Drug uptake [27]: 0.91 %ID
Drug uptake [28]: 0.72 %ID
tumor/blood ratio [29]: 0.56
Drug uptake [30]: 1.36 %ID
Drug uptake [31]: 0.05 %ID
tumor/muscle ratio [32]: 1.74
Drug uptake [33]: 0.5 %ID
Drug uptake [34]: 0.3 %ID
Drug uptake [35]: 0.01 %ID
Drug uptake [36]: 0.31 %ID
Drug uptake [37]: 0.15 %ID
Drug uptake [38]: 0.57 %ID
Drug uptake [39]: 0.09 %ID
Drug uptake [40]: 2.01 %ID
Drug uptake [41]: 0.29 %ID
tumor/brain ratio [42]: 9.38
Drug uptake [43]: 1.27 %ID
Compound: CC(C)[C@H](NC(=O)c1ccc([N+](=O)[O-])cc1[18F])C(=O)O

tumor/blood ratio [1]: 0.94
Drug uptake [2]: 1.97 %ID
tumor/brain ratio [3]: 7.06
tumor/brain ratio [4]: 3.42
Drug uptake [5]: 11.28 %ID
tumor/blood ratio [6]: 1.67
Drug uptake [7]: 0.05 %ID
Drug uptake [8]: 0.69 %ID
Drug uptake [9]: 8.6 %ID
tumor/muscle ratio [10]: 1.48
Drug uptake [11]: 0.28 %ID
tumor/muscle ratio [12]: 0.54
Drug uptake [13]: 1.35 %ID
Drug uptake [14]: 15.9 %ID
Drug uptake [15]: 0.19 %ID
Drug uptake [16]: 0.31 %ID
Drug uptake [17]: 0.28 %ID
Drug uptake [18]: 1.13 %ID
Drug uptake [19]: 0.19 %ID
tumor/muscle ratio [20]: 2.41
Drug uptake [21]: 0.35 %ID
Drug uptake [22]: 2.78 %ID
Drug uptake [23]: 0.95 %ID
Drug uptake [24]: 0.58 %ID
Drug uptake [25]: 1.48 %ID
Drug uptake [26]: 0.31 %ID
Drug uptake [27]: 2.06 %ID
Drug uptake [28]: 0.6 %ID
tumor/blood ratio [29]: 0.9
Drug uptake [30]: 3.8 %ID
Drug uptake [31]: 0.08 %ID
tumor/muscle ratio [32]: 1.39
Drug uptake [33]: 0.14 %ID
Drug uptake [34]: 0.29 %ID
Drug uptake [35]: 0.12 %ID
Drug uptake [36]: 0.51 %ID
Drug uptake [37]: 0.99 %ID
Drug uptake [38]: 0.25 %ID
Drug uptake [39]: 0.6 %ID
Drug uptake [40]: 2.57 %ID
Drug uptake [41]: 0.4 %ID
tumor/brain ratio [42]: 2.79
Drug uptake [43]: 2.18 %ID
Compound: COC(=O)[C@@H](NC(=O)c1ccc([N+](=O)[O-])cc1[18F])C(C)C

tumor/blood ratio [1]: 3.42
Drug uptake [2]: 1.86 %ID
tumor/brain ratio [3]: 0.61
tumor/brain ratio [4]: 0.59
Drug uptake [5]: 1.04 %ID
tumor/blood ratio [6]: 15.8
Drug uptake [7]: 0.78 %ID
Drug uptake [8]: 0.97 %ID
Drug uptake [9]: 0.47 %ID
tumor/muscle ratio [10]: 1.37
Drug uptake [11]: 3.07 %ID
tumor/muscle ratio [12]: 2.2
Drug uptake [13]: 2.6 %ID
Drug uptake [14]: 1.35 %ID
Drug uptake [15]: 3.24 %ID
Drug uptake [16]: 0.83 %ID
Drug uptake [17]: 0.11 %ID
Drug uptake [18]: 0.95 %ID
Drug uptake [19]: 0.11 %ID
tumor/muscle ratio [20]: 1.75
Drug uptake [21]: 0.54 %ID
Drug uptake [22]: 1.27 %ID
Drug uptake [23]: 2.16 %ID
Drug uptake [24]: 0.78 %ID
Drug uptake [25]: 1.31 %ID
Drug uptake [26]: 0.57 %ID
Drug uptake [27]: 1.56 %ID
Drug uptake [28]: 2.5 %ID
tumor/blood ratio [29]: 1.17
Drug uptake [30]: 0.61 %ID
Drug uptake [31]: 6.27 %ID
tumor/muscle ratio [32]: 2.23
Drug uptake [33]: 0.2 %ID
Drug uptake [34]: 0.25 %ID
Drug uptake [35]: 1.28 %ID
Drug uptake [36]: 0.9 %ID
Drug uptake [37]: 2.4 %ID
Drug uptake [38]: 0.52 %ID
Drug uptake [39]: 2.63 %ID
Drug uptake [40]: 0.77 %ID
Drug uptake [41]: 2.69 %ID
tumor/brain ratio [42]: 0.53
Drug uptake [43]: 0.46 %ID
Compound: OC[C@H]1O[C@@H](O)[C@H]([18F])[C@@H](O)[C@@H]1O [FLUDEOXYGLUCOSE-F18]
